The values that follow come from patent US11450805B2, “Compound, semiconductor material, and methods for manufacturing coating and semiconductor using the same” (Merck Patent GmbH, priority 2016, dated 2022).

The nature of the series: Evaluation of solubility of solute in solvents (visual inspection). Format: physicochemical. Conditions: stirring at room temperature for 60 minutes; for Solubility, solvent PGME:EL = 7:3: PGME:EL = 7:3 volume ratio; for Solubility, solvent PGME:PGMEA = 7:3: PGME:PGMEA = 7:3 volume ratio. The method, then:
Comparative compound 1 was added as a solute to each of the various solvents listed in Table 1 in an amount of 10% by mass, and mixed with the solvent by stirring at room temperature for 60 minutes. When 10% by mass of the solute was not fully dissolved in the solvent, the amount of the solute added was changed to 1% by mass, and 1% by mass of the solute was mixed with the solvent in the same manner as above.
The state of dissolution of the solute was visually inspected and evaluated as follows.
A: Even when the amount of the solute mixed with the solvent was 10% by mass, the solute was fully dissolved.
B: When the amount of the solute mixed with the solvent was 10% by mass, the solute was not fully dissolved and some of it remained undissolved, while when the amount of the solute mixed with the solvent was 1% by mass, the solute was fully dissolved.
C: Even when the amount of the solute mixed with the solvent was 1% by mass, the solute was not fully dissolved and some of it remained undissolved.
Experiments were conducted in the same manner as above, except for changing the solute from comparative compound 1 to other compounds listed in Table 1.

With `c1ccc(-c2c(-c3ccccc3)c(-c3ccccc3)c(-c3ccc(-c4c(-c5ccccc5)c(-c5ccccc5)c(-c5ccccc5)c(-c5ccccc5)c4-c4ccccc4)cc3)c(-c3ccccc3)c2-c2ccccc2)cc1` [Comparative compound 1, reference compound], the “Solubility, solvent PGME:EL = 7:3” value is “C (Even when the amount of the solute mixed with the solvent was 1% by mass, the solute was not fully dissolved and some of it remained undissolved.)”; the “Solubility, solvent PGME:PGMEA = 7:3” value is “C (Even when the amount of the solute mixed with the solvent was 1% by mass, the solute was not fully dissolved and some of it remained undissolved.)”; the “Solubility, solvent PGME” value was “C (Even when the amount of the solute mixed with the solvent was 1% by mass, the solute was not fully dissolved and some of it remained undissolved.)”.

For the compound `Oc1ccc(-c2c(-c3ccccc3)c(-c3ccccc3)c(-c3ccc(-c4c(-c5ccccc5)c(-c5ccccc5)c(-c5ccc(O)cc5)c(-c5ccc(O)cc5)c4-c4ccccc4)cc3)c(-c3ccccc3)c2-c2ccc(O)cc2)cc1` [G1], the “Solubility, solvent PGME:EL = 7:3” value was “A (Even when the amount of the solute mixed with the solvent was 10% by mass, the solute was fully dissolved.)”; the “Solubility, solvent PGME:PGMEA = 7:3” value is “A (Even when the amount of the solute mixed with the solvent was 10% by mass, the solute was fully dissolved.)”; the “Solubility, solvent PGME” value was “A (Even when the amount of the solute mixed with the solvent was 10% by mass, the solute was fully dissolved.)”.

On to `Oc1ccc(-c2c(-c3ccccc3)c(-c3ccccc3)c(-c3c4ccccc4c(-c4c(-c5ccccc5)c(-c5ccccc5)c(-c5ccc(O)cc5)c(-c5ccc(O)cc5)c4-c4ccccc4)c4ccccc34)c(-c3ccccc3)c2-c2ccc(O)cc2)cc1` [G2], for which the “Solubility, solvent PGME:EL = 7:3” value is “A (Even when the amount of the solute mixed with the solvent was 10% by mass, the solute was fully dissolved.)”; the “Solubility, solvent PGME:PGMEA = 7:3” value was “A (Even when the amount of the solute mixed with the solvent was 10% by mass, the solute was fully dissolved.)”; the “Solubility, solvent PGME” value is “A (Even when the amount of the solute mixed with the solvent was 10% by mass, the solute was fully dissolved.)”.

Consider `Oc1ccc(-c2c(-c3ccccc3)cc(-c3ccc(-c4cc(-c5ccccc5)c(-c5ccc(O)cc5)c(-c5ccc(O)cc5)c4-c4ccccc4)cc3)c(-c3ccccc3)c2-c2ccc(O)cc2)cc1` [G3], for which the “Solubility, solvent PGME:EL = 7:3” value is “A (Even when the amount of the solute mixed with the solvent was 10% by mass, the solute was fully dissolved.)”; the “Solubility, solvent PGME:PGMEA = 7:3” value is listed as “A (Even when the amount of the solute mixed with the solvent was 10% by mass, the solute was fully dissolved.)”; the “Solubility, solvent PGME” value was “A (Even when the amount of the solute mixed with the solvent was 10% by mass, the solute was fully dissolved.)”.

Consider `Oc1ccc(-c2c(-c3ccc(O)cc3)c(-c3ccc(O)cc3)c(-c3ccc(O)cc3)c(-c3ccc(O)cc3)c2-c2ccc(O)cc2)cc1` [G5], for which the “Solubility, solvent PGME:EL = 7:3” value is “A (Even when the amount of the solute mixed with the solvent was 10% by mass, the solute was fully dissolved.)”; the “Solubility, solvent PGME:PGMEA = 7:3” value is listed as “A (Even when the amount of the solute mixed with the solvent was 10% by mass, the solute was fully dissolved.)”; the “Solubility, solvent PGME” value is “A (Even when the amount of the solute mixed with the solvent was 10% by mass, the solute was fully dissolved.)”.

For the compound `Oc1ccc(-c2c(-c3ccccc3)c(-c3ccccc3)c(-c3ccc(-c4ccc(-c5c(-c6ccccc6)c(-c6ccccc6)c(-c6ccc(O)cc6)c(-c6ccc(O)cc6)c5-c5ccccc5)cc4)cc3)c(-c3ccccc3)c2-c2ccc(O)cc2)cc1` [G6], the “Solubility, solvent PGME:EL = 7:3” value was “A (Even when the amount of the solute mixed with the solvent was 10% by mass, the solute was fully dissolved.)”; the “Solubility, solvent PGME:PGMEA = 7:3” value is on record as “A (Even when the amount of the solute mixed with the solvent was 10% by mass, the solute was fully dissolved.)”; the “Solubility, solvent PGME” value is recorded as “A (Even when the amount of the solute mixed with the solvent was 10% by mass, the solute was fully dissolved.)”.

As to `Oc1ccc(-c2c(-c3ccccc3)c(-c3ccccc3)c(-c3c(-c4ccccc4)c(-c4c(-c5ccccc5)c(-c5ccccc5)c(-c5ccc(O)cc5)c(-c5ccc(O)cc5)c4-c4ccccc4)c(-c4ccccc4)c(-c4c(-c5ccccc5)c(-c5ccccc5)c(-c5ccc(O)cc5)c(-c5ccc(O)cc5)c4-c4ccccc4)c3-c3ccccc3)c(-c3ccccc3)c2-c2ccc(O)cc2)cc1` [G7], the “Solubility, solvent PGME:EL = 7:3” value was “B (When the amount of the solute mixed with the solvent was 10% by mass, the solute was not fully dissolved and some of it remained undissolved, while when the amount of the solute mixed with the solvent was 1% by mass, the solute was fully dissolved.)”; the “Solubility, solvent PGME:PGMEA = 7:3” value was “B (When the amount of the solute mixed with the solvent was 10% by mass, the solute was not fully dissolved and some of it remained undissolved, while when the amount of the solute mixed with the solvent was 1% by mass, the solute was fully dissolved.)”; the “Solubility, solvent PGME” value is listed as “A (Even when the amount of the solute mixed with the solvent was 10% by mass, the solute was fully dissolved.)”.

Turning to `Nc1ccc(-c2c(-c3ccccc3)c(-c3ccccc3)c(-c3ccccc3)c(-c3ccccc3)c2-c2ccc(N)cc2)cc1` [G8], the “Solubility, solvent PGME:EL = 7:3” value is given as “A (Even when the amount of the solute mixed with the solvent was 10% by mass, the solute was fully dissolved.)”; the “Solubility, solvent PGME:PGMEA = 7:3” value is listed as “A (Even when the amount of the solute mixed with the solvent was 10% by mass, the solute was fully dissolved.)”; the “Solubility, solvent PGME” value is “A (Even when the amount of the solute mixed with the solvent was 10% by mass, the solute was fully dissolved.)”.

Regarding `COc1ccc(-c2c(-c3ccccc3)c(-c3ccccc3)c(-c3ccc(-c4c(-c5ccccc5)c(-c5ccccc5)c(-c5ccc(OC)cc5)c(-c5ccc(OC)cc5)c4-c4ccccc4)cc3)c(-c3ccccc3)c2-c2ccc(OC)cc2)cc1` [Intermediate G0, reference compound], the “Solubility, solvent PGME:EL = 7:3” value was “C (Even when the amount of the solute mixed with the solvent was 1% by mass, the solute was not fully dissolved and some of it remained undissolved.)”; the “Solubility, solvent PGME:PGMEA = 7:3” value is “C (Even when the amount of the solute mixed with the solvent was 1% by mass, the solute was not fully dissolved and some of it remained undissolved.)”; the “Solubility, solvent PGME” value is “C (Even when the amount of the solute mixed with the solvent was 1% by mass, the solute was not fully dissolved and some of it remained undissolved.)”.
